{"source": "the kinase profiling compilation of Christmann-Franck et al. (2016)", "assay_in_all_cases": "KINOMEscan competition binding", "details_in_all_cases": "compound 10.0 µM", "key": {"[1]": {"biological_target": "AKT3 (human) (UniProt Q9Y243)"}, "[2]": {"biological_target": "PHKG1 (human) (UniProt Q16816)"}, "[3]": {"biological_target": "BMPR2 (human) (UniProt Q13873)"}, "[4]": {"biological_target": "PIM3 (human) (UniProt Q86V86)"}, "[5]": {"biological_target": "MST1R (human) (UniProt Q04912)"}, "[6]": {"biological_target": "PLK1 (human) (UniProt P53350)"}, "[7]": {"biological_target": "PAK4 (human) (UniProt O96013)"}, "[8]": {"biological_target": "RAF1 (human) (UniProt P04049)"}, "[9]": {"biological_target": "CDK9 (human) (UniProt P50750)"}, "[10]": {"biological_target": "PRKD1 (human) (UniProt Q15139)"}, "[11]": {"biological_target": "CDC42BPA (human) (UniProt Q5VT25)"}, "[12]": {"biological_target": "NEK1 (human) (UniProt Q96PY6)"}, "[13]": {"biological_target": "SRC (human) (UniProt P12931)", "sequence (P12931 whole entry, looked up)": "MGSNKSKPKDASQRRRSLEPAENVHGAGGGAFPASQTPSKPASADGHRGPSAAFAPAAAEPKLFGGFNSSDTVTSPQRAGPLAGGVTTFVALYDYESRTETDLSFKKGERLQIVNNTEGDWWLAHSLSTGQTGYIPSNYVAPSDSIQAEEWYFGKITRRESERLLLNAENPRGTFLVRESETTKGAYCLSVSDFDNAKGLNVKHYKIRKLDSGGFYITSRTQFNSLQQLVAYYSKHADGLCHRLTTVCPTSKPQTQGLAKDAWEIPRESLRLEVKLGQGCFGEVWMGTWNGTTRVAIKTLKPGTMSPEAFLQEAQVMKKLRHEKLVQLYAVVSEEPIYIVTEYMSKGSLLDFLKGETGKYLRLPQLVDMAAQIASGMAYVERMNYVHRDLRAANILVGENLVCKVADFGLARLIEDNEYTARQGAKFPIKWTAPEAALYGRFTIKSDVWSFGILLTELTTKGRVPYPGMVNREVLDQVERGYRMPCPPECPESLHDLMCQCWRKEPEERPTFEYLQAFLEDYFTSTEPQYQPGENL"}, "[14]": {"biological_target": "MAP4K2 (human) (UniProt Q12851)"}, "[15]": {"biological_target": "MAP3K11 (human) (UniProt Q16584)", "sequence (Q16584 whole entry, looked up)": "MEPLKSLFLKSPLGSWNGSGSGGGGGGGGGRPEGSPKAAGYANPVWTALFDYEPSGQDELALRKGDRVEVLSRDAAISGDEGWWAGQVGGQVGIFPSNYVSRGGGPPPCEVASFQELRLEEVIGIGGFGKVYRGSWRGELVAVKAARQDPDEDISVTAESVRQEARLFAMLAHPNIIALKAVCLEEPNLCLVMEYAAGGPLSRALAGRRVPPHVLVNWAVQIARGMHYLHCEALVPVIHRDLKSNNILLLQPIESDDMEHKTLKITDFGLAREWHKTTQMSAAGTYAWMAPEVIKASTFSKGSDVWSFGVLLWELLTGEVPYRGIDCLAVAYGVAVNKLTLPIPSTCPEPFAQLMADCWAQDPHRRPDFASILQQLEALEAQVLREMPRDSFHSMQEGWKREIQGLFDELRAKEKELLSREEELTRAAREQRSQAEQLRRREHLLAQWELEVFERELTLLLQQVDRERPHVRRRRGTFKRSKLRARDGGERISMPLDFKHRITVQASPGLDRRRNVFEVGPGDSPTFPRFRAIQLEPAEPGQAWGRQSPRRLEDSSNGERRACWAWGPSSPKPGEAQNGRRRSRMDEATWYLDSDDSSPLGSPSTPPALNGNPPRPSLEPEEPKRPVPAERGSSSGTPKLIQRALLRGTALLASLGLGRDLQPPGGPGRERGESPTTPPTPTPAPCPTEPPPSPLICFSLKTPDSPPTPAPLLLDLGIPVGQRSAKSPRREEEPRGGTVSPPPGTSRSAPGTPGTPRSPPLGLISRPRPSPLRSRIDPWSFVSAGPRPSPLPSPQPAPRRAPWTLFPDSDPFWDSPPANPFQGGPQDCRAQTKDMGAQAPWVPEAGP"}, "[16]": {"biological_target": "MAPK6 (human) (UniProt Q16659)"}, "[17]": {"biological_target": "CDK18 (human) (UniProt Q07002)"}, "[18]": {"biological_target": "FES (human) (UniProt P07332)", "sequence (P07332 whole entry, looked up)": "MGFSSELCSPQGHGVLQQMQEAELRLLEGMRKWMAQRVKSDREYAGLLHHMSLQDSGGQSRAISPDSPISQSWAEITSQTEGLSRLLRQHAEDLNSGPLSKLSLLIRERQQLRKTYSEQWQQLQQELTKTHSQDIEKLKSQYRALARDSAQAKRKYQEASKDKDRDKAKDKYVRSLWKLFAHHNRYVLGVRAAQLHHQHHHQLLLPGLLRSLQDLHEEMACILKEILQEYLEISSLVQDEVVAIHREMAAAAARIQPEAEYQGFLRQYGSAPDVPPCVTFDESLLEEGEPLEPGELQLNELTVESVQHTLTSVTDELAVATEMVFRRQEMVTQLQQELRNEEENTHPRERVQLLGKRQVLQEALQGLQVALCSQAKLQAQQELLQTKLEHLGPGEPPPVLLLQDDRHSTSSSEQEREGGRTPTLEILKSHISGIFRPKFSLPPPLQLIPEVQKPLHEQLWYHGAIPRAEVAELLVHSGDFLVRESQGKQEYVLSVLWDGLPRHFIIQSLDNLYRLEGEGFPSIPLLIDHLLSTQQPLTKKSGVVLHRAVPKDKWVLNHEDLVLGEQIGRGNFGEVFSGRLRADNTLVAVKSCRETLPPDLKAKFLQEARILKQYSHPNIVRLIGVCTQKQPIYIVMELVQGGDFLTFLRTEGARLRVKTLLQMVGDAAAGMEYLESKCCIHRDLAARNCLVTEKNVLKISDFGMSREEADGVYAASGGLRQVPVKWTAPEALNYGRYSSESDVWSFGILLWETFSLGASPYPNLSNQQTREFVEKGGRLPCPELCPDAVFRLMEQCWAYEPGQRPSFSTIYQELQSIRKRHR"}, "[19]": {"biological_target": "EPHA7 (human) (UniProt Q15375)"}, "[20]": {"system": "ABL1 (human), P00519 [M351T]"}, "[21]": {"biological_target": "LTK (human) (UniProt P29376)"}, "[22]": {"biological_target": "CDK19 (human) (UniProt Q9BWU1)"}, "[23]": {"biological_target": "MAP4K1 (human) (UniProt Q92918)"}, "[24]": {"biological_target": "DAPK1 (human) (UniProt P53355)"}, "[25]": {"biological_target": "HIPK1 (human) (UniProt Q86Z02)", "sequence (Q86Z02 whole entry, looked up)": "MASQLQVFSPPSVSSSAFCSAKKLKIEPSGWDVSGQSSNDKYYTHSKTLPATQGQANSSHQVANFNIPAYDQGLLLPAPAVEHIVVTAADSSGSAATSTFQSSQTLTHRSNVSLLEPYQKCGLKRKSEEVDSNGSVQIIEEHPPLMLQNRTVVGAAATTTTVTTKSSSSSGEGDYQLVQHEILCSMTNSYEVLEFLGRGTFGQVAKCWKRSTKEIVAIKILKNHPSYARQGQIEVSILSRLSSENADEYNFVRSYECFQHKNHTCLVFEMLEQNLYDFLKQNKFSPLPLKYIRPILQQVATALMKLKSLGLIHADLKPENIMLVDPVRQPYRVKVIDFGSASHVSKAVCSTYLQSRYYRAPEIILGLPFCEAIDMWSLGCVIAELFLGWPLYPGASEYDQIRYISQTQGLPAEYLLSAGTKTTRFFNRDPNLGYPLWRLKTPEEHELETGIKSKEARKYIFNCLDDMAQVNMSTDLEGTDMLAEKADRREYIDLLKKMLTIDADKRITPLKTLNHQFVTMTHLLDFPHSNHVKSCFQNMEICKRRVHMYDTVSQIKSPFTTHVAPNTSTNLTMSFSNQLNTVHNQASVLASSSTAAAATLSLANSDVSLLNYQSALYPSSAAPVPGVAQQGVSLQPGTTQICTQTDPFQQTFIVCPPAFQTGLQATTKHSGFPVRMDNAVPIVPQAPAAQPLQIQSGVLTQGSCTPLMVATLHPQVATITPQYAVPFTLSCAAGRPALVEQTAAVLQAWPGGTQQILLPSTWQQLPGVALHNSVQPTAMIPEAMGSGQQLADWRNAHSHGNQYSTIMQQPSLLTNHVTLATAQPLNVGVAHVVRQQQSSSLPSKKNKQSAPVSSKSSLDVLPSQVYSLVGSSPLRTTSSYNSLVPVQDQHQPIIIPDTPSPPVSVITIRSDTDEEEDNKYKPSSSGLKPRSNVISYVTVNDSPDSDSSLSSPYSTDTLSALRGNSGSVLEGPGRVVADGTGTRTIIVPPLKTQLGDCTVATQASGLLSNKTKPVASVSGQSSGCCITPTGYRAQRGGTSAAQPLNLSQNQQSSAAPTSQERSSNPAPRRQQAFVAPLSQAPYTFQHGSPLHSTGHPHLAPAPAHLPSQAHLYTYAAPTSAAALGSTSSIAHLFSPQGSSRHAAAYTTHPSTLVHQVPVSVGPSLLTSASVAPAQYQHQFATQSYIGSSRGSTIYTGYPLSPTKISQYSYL"}, "[26]": {"biological_target": "MAPK11 (human) (UniProt Q15759)"}, "[27]": {"biological_target": "EPHB1 (human) (UniProt P54762)"}, "[28]": {"biological_target": "INSRR (human) (UniProt P14616)"}, "[29]": {"biological_target": "BTK (human) (UniProt Q06187)"}, "[30]": {"biological_target": "RPS6KA1 KD2 (human) (UniProt Q15418)"}, "[31]": {"biological_target": "KDR (human) (UniProt P35968)"}, "[32]": {"biological_target": "MAP4K5 (human) (UniProt Q9Y4K4)"}, "[33]": {"biological_target": "SLK (human) (UniProt Q9H2G2)", "sequence (Q9H2G2 whole entry, looked up)": "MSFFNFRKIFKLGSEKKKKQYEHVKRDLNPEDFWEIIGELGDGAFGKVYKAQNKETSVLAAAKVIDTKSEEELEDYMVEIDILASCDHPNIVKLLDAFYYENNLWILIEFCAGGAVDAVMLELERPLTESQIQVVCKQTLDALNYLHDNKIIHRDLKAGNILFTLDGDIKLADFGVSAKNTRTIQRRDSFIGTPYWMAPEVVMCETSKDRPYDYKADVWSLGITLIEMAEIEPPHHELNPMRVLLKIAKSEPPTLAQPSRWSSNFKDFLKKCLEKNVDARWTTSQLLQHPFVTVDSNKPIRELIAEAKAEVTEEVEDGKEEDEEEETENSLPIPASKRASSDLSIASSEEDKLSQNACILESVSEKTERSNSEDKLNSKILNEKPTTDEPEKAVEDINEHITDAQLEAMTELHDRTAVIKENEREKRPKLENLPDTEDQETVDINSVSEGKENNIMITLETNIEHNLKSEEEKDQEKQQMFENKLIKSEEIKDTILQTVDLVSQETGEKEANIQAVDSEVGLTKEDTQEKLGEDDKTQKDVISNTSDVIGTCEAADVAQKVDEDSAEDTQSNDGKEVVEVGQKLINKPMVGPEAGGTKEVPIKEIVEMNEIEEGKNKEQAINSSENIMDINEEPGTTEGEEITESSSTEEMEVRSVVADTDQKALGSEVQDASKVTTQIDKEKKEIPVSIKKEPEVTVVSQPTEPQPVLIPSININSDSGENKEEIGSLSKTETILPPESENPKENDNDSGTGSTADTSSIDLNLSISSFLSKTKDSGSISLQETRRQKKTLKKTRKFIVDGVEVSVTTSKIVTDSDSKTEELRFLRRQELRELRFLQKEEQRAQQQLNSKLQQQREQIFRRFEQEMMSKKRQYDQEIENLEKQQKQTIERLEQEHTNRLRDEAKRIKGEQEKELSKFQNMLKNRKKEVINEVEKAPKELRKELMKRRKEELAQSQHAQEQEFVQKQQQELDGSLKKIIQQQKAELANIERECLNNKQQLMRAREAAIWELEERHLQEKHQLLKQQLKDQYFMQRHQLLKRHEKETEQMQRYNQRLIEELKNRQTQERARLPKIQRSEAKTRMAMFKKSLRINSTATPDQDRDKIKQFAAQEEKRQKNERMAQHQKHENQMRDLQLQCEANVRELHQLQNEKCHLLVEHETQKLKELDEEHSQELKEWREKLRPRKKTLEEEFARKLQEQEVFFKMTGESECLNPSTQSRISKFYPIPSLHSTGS"}, "[34]": {"system": "RET (human), P07949 [V804L]"}, "[35]": {"biological_target": "TTK (human) (UniProt P33981)"}, "[36]": {"biological_target": "MAP2K6 (human) (UniProt P52564)"}, "[37]": {"biological_target": "TNNI3K (human) (UniProt Q59H18)"}, "[38]": {"biological_target": "LIMK1 (human) (UniProt P53667)"}, "[39]": {"biological_target": "STK38L (human) (UniProt Q9Y2H1)"}, "[40]": {"biological_target": "CLK3 (human) (UniProt P49761)"}, "[41]": {"biological_target": "PAK1 (human) (UniProt Q13153)"}, "[42]": {"biological_target": "CDK17 (human) (UniProt Q00537)"}, "[43]": {"biological_target": "PAK6 (human) (UniProt Q9NQU5)"}}}
{"smiles": "CCN1CCN(Cc2ccc(NC(=O)c3ccc(C)c(/C=C/c4cnc(Nc5cc(N6CCNCC6)nc(C)n5)cn4)c3)cc2C(F)(F)F)CC1", "values": [{"measurement": "kinase still bound, per cent of control", "setting": "[1]", "value": 81, "unit": "%"}, {"measurement": "kinase still bound, per cent of control", "setting": "[2]", "value": 100, "unit": "%"}, {"measurement": "kinase still bound, per cent of control", "setting": "[3]", "value": 100, "unit": "%"}, {"measurement": "kinase still bound, per cent of control", "setting": "[4]", "value": 55, "unit": "%"}, {"measurement": "kinase still bound, per cent of control", "setting": "[5]", "value": 85, "unit": "%"}, {"measurement": "kinase still bound, per cent of control", "setting": "[6]", "value": 100, "unit": "%"}, {"measurement": "kinase still bound, per cent of control", "setting": "[7]", "value": 100, "unit": "%"}, {"measurement": "kinase still bound, per cent of control", "setting": "[8]", "value": 43, "unit": "%"}, {"measurement": "kinase still bound, per cent of control", "setting": "[9]", "value": 99, "unit": "%"}, {"measurement": "kinase still bound, per cent of control", "setting": "[10]", "value": 90, "unit": "%"}, {"measurement": "kinase still bound, per cent of control", "setting": "[11]", "value": 100, "unit": "%"}, {"measurement": "kinase still bound, per cent of control", "setting": "[12]", "value": 91, "unit": "%"}, {"measurement": "kinase still bound, per cent of control", "setting": "[13]", "value": 0.25, "unit": "%"}, {"measurement": "kinase still bound, per cent of control", "setting": "[14]", "value": 0.1, "unit": "%"}, {"measurement": "kinase still bound, per cent of control", "setting": "[15]", "value": 10, "unit": "%"}, {"measurement": "kinase still bound, per cent of control", "setting": "[16]", "value": 100, "unit": "%"}, {"measurement": "kinase still bound, per cent of control", "setting": "[17]", "value": 81, "unit": "%"}, {"measurement": "kinase still bound, per cent of control", "setting": "[18]", "value": 9.4, "unit": "%"}, {"measurement": "kinase still bound, per cent of control", "setting": "[19]", "value": 76, "unit": "%"}, {"measurement": "kinase still bound, per cent of control", "setting": "[20]", "value": 3.8, "unit": "%"}, {"measurement": "kinase still bound, per cent of control", "setting": "[21]", "value": 100, "unit": "%"}, {"measurement": "kinase still bound, per cent of control", "setting": "[22]", "value": 3.5, "unit": "%"}, {"measurement": "kinase still bound, per cent of control", "setting": "[23]", "value": 0, "unit": "%"}, {"measurement": "kinase still bound, per cent of control", "setting": "[24]", "value": 85, "unit": "%"}, {"measurement": "kinase still bound, per cent of control", "setting": "[25]", "value": 34, "unit": "%"}, {"measurement": "kinase still bound, per cent of control", "setting": "[26]", "value": 3.2, "unit": "%"}, {"measurement": "kinase still bound, per cent of control", "setting": "[27]", "value": 16, "unit": "%"}, {"measurement": "kinase still bound, per cent of control", "setting": "[28]", "value": 44, "unit": "%"}, {"measurement": "kinase still bound, per cent of control", "setting": "[29]", "value": 0.2, "unit": "%"}, {"measurement": "kinase still bound, per cent of control", "setting": "[30]", "value": 13, "unit": "%"}, {"measurement": "kinase still bound, per cent of control", "setting": "[31]", "value": 37, "unit": "%"}, {"measurement": "kinase still bound, per cent of control", "setting": "[32]", "value": 0.55, "unit": "%"}, {"measurement": "kinase still bound, per cent of control", "setting": "[33]", "value": 2.4, "unit": "%"}, {"measurement": "kinase still bound, per cent of control", "setting": "[34]", "value": 1.2, "unit": "%"}, {"measurement": "kinase still bound, per cent of control", "setting": "[35]", "value": 85, "unit": "%"}, {"measurement": "kinase still bound, per cent of control", "setting": "[36]", "value": 100, "unit": "%"}, {"measurement": "kinase still bound, per cent of control", "setting": "[37]", "value": 12, "unit": "%"}, {"measurement": "kinase still bound, per cent of control", "setting": "[38]", "value": 15, "unit": "%"}, {"measurement": "kinase still bound, per cent of control", "setting": "[39]", "value": 84, "unit": "%"}, {"measurement": "kinase still bound, per cent of control", "setting": "[40]", "value": 100, "unit": "%"}, {"measurement": "kinase still bound, per cent of control", "setting": "[41]", "value": 87, "unit": "%"}, {"measurement": "kinase still bound, per cent of control", "setting": "[42]", "value": 60, "unit": "%"}, {"measurement": "kinase still bound, per cent of control", "setting": "[43]", "value": 91, "unit": "%"}]}
